Converted amounts (≈) assume the structure as drawn. Where a name gives a salt, the structure may show the parent alone. Read-outs that look alike come from different tables or passages of the source.
What was measured:
P388/V = test: Proliferation inhibition, drug-sensitive P388 cells (MTT method); type: cell-based, murine; details: Mus musculus, P388, 72 h, 3 days culture, read-out: IC₅₀ P388/V
Description: (§1) Proliferation inhibition effects againt P388/multiple drug - resistant cells were measured using vincristine and adriamycin as comparative compounds.
(§2) In this experiment, a drug - sensitive strain (P388/S) of a murine leukemia cell P388 and a drug - resistant strain (P388/VCR, T. Turuo, H. Iida, S. Tsukagoshi, et al., Cancer Research 42, 4730 - 4733, 1982) were suspended respectively in RPMI 1640 media containing a drug in various concentrations, 10 % fetal bovine serum and 20 µ M β - mercaptoethanol, respectively, and seeded in a 96 - well microtest plate in a number of 10⁴ cells/well, and cultured at 37°C under CO₂ gas for 3 days. Calculation of 50% proliferation inhibition concentration (IC₅₀) was made by the MTT method (M. C. Alley, D. A. Scudiero, A. Monks, et al., Cancer Research 48, 589 - 601, 1988).

P388/VCR = test: Proliferation inhibition, multiple drug-resistant P388 cells (MTT method); type: cell-based, murine; details: Mus musculus, 72 h, 3 days culture, read-out: IC₅₀ P388/VCR
Description: as §1, §2

S.aureus BB5703 = test: In vitro antibacterial activity, agar plate dilution method; type: cell-based; details: Staphylococcus aureus, MH agar, 10⁶CFU/ml, 16 hours at 37°C, read-out: Minimum inhibitory concentration (MIC) S.aureus BB5703
Description: (§3) One platinum loopful portions of a test strain (quantity of each strain inoculated : 10⁶CFU/ml) cultured overnight in Mueller Hinton broth were inoculated respectively into MH agars containing an antibacterial agent in various concentrations. After 16 hours culture at 37°C, minimum inhibitory concentration (MIC: µg/ml) was measured.

S.aureus BB5769 = test: as above; type: cell-based; details: Staphylococcus aureus, MH agar, 10⁶CFU/ml, 16 hours at 37°C, read-out: Minimum inhibitory concentration (MIC) S.aureus BB5769
Description: as §3

S.aureus JS1 = test: as above; type: cell-based; details: Staphylococcus aureus, β-lactamase-producing bacterium, MH agar, 10⁶CFU/ml, 16 hours at 37°C, read-out: Minimum inhibitory concentration (MIC) S.aureus JS1
Description: as §3

DNA topoisomerase I = biological target: T1, DNA topoisomerase I (Mus musculus, UniProt Q04750); test: DNA topoisomerase inhibition activity (DNA relaxation, agarose-gel electrophoresis); type: biochemical, murine; details: relaxation of supercoiled pBR 322 plasmid DNA, 37°C for 10 minutes, enzyme from L1210 nuclei; read-out: IC₅₀ DNA topoisomerase I (converted)
T1 construct: obtained by purifying an extract from the nuclei of cells of L1210 murine leukemia by column chromatography; endogenous in cells; host or cells: L1210 murine leukemia cells (nuclear extract, purified on hydroxylapatite / phosphocellulose columns)
T1 sequence (Q04750 1-767): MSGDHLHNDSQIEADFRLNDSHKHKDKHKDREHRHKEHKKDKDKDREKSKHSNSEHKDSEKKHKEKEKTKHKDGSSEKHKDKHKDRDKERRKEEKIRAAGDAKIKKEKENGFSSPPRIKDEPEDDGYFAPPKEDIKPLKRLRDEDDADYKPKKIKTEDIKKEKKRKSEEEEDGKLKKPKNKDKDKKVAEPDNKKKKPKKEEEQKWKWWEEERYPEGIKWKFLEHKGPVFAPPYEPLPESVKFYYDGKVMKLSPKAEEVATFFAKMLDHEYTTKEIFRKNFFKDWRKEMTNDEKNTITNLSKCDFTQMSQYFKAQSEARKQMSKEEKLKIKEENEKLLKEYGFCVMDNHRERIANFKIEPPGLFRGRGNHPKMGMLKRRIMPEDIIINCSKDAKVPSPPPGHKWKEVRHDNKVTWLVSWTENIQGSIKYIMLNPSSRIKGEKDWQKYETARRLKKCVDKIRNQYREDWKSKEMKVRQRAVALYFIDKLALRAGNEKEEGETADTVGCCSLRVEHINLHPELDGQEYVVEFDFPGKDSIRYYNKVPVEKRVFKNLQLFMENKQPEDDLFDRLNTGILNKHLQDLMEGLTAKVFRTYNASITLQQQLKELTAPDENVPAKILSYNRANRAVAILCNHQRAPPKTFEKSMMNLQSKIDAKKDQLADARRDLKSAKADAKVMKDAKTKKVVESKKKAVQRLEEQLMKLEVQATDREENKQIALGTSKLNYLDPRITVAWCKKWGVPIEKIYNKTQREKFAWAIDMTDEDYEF
Description: (§4) In this experiment, as enzymes were used DNA topoisomerase I and DNA topoisomerase II obtained by purifying an extract from the nuclei of cells of L1210 murine leukemia by column chromatography using hydroxylapatite and phosphocellulose, respectively, and as a DNA was used supercoiled pBR 322 plasmid DNA.
(§5) Measurement of inhibition effect was made by the method disclosed in a literature, i. e. Okura et al., Biochem. Biophys. Res. Comm. 157, 183 - 189, 1988, namely by warming at 37°C for 10 minutes the supercoiled DNA in DNA topoisomerase I or DNA topoisomerase II solutions containing a drug in various concentrations, and then detecting the resultant topology changes of the DNA as changes of the electrophoretic images in agarose - gel electrophoresis.

DNA topoisomerase II = test: as above; type: biochemical, murine; details: relaxation of supercoiled pBR 322 plasmid DNA, 37°C for 10 minutes, enzyme from L1210 nuclei
Description: as §4, §5

L1210 cells = test: In vitro cytotoxicity against L1210 murine leukemia (proliferation inhibition); type: cell-based; details: Mus musculus, read-out: IC₅₀
Description: In this experiment, respective 2 × 10⁴ L1210 cells were cultured at 37°C under 5% CO₂ gas for 3 days in respective RPMI 1640 media containing a drug in various concentrations and 10 % fetal bovine serum, and the numbers of the cells after the culture were counted using a Coulter counter.

L1210 = test: Life-span prolonging effect on L1210 leukemia-bearing mice; type: in vivo, CDF₁ mice; details: for effect at an administration quantity of 0.02 mg/kg: life-span prolongation, 0.02 mg/kg intraperitoneal
Description: (§6) In this experiment, 10⁶ L1210 cells or 10⁴ P388 cells were intraperitoneally transplanted into CDF₁ mice (♀, 5 weeks old), a drug in the various concentrations was intraperitoneally injected once a day for continuous 10 days from the day after the transplantation, and survival periods after the tumor transplantation were recorded.

P388 = test: Life-span prolonging effect on P388 leukemia-bearing mice; type: in vivo, CDF₁ mice
Description: as §6

[1] = Acute toxicity against a mouse; type: in vivo, CDF₁ mice; details: 5 mg/kg intravenously, observation for one week
Description: 5 mg/kg portions of the compound of Example 9 were intravenously injected into CDF₁ mice (♀, 5 weeks old) according to a conventional manner, respectively.

[2] = 72 h, L1210 cells, cultured 3 days, Coulter counter
[3] = dose 0.020 mg/kg intraperitoneally once a day for 10 days
[4] = dose 0.078 mg/kg intraperitoneally once a day for 10 days
[5] = dose 0.313 mg/kg intraperitoneally once a day for 10 days

Row | IC50 (P388/V) [µg/mL] | IC50 (P388/VCR) [µg/mL] | MIC (S.aureus BB5703) [µg/mL] | MIC (S.aureus BB5769) [µg/mL] | MIC (S.aureus JS1) [µg/mL] | Structure (SMILES) | IC50 (DNA topoisomerase I) [µM] | IC₅₀ DNA topoisomerase II (DNA topoisomerase II) [µg/mL] | IC50 (L1210 cells; [2]) [µg/mL] | Mean survival days L1210 (L1210; [3]) [days] | T/C % L1210 (L1210; [3]) [%] | Mean survival days L1210 (L1210; [4]) [days] | T/C % L1210 (L1210; [4]) [%] | Mean survival days L1210 (L1210; [5]) [days] | T/C % L1210 (L1210; [5]) [%] | effect at an administration quantity of 0.02 mg/kg (L1210) | further results
1 | 0.021 (≈ 0.0386 µM) | 0.063 (≈ 0.116 µM) |  |  |  | COc1cccc2c1C(=O)c1c(O)c3c(c(O)c1C2=O)C[C@@](O)(C(=O)CO)C[C@@H]3O[C@H]1C[C@H](N)[C@H](O)[C@H](C)O1 [Adriamycin, adriamycin] |  |  |  |  |  |  |  |  |  |  | 
2 |  |  | < 0.006 | < 0.006 | < 0.006 | CN[C@@H]1C=CC[C@@H]2CN(c3c(F)cc4c(=O)c(C(=O)O)cn(C5CC5)c4c3F)C[C@@H]21.O=C(O)C(F)(F)F (relative stereo) [Compound of Ex.2, 1 - cyclopropyl - 6, 8 - difluoro - 1, 4 - dihydro - 7 - [(1R*, 2R*, 6S*) - 2 - (N - methylamino) - 8 - azabicyclo [4.3.0]non - 3 - en - 8 - yl] - 4 - oxo - 3 - quinolinecarboxylic acid trifluoroacetate] |  |  |  |  |  |  |  |  |  |  | 
3 |  |  | < 0.006 | < 0.006 | < 0.006 | Cl.Nc1c(F)c(N2C[C@H]3CC=C[C@@H](N)[C@H]3C2)c(F)c2c1c(=O)c(C(=O)O)cn2C1CC1 (single isomer, unassigned) [Compound of Ex.13, (-) - 5 - amino - 7 - [(1R*, 2R*, 6S*) 2 - amino - 8 - azabicyclo [4.3.0]non - 3 - en - 8 - yl] - 1 - cyclopropyl - 6, 8 - difluoro - 1, 4 - dihydro - 4 - oxo - 3 - quinolinecarboxylic acid hydrochloride] | 221 | 4 | 0.0015 |  |  |  |  |  |  |  | 
4 |  |  |  |  |  | COc1c(N2C[C@H]3CC=C[C@@H](N)[C@H]3C2)c(F)cc2c(=O)c(C(=O)O)cn(C3CC3)c12 (relative stereo) [Compound of Ex.11, (-) - 7 - [(1R*, 2R*, 6S*) - 2 - amino - 8 - azabicyclo [4.3.0]non - 3 - en - 8 - yl] - 1 - cyclopropyl - 6 - fluoro - 1, 4 - dihydro - 8 - methoxy - 4 - oxo - 3 - quinolinecarboxlic acid hydrochloride] | 3020 | 2 |  | 25.8 | 188 | > 50.8 | 371 | 16.4 | 120 | effective | IC50 (L1210 cells; L1210, 72 h): 0.032 µg/mL
5 | 0.00032 (≈ 0.000388 µM) | 0.019 (≈ 0.023 µM) |  |  |  | CC[C@]1(O)C[C@H]2CN(CCc3c([nH]c4ccccc34)[C@@](C(=O)OC)(c3cc4c(cc3OC)N(C=O)[C@H]3[C@@](O)(C(=O)OC)[C@H](OC(C)=O)[C@]5(CC)C=CCN6CC[C@]43[C@@H]65)C2)C1 [Vincristine, vincristine] |  |  |  |  |  |  |  |  |  |  | 
6 |  |  |  |  |  | COc1cc([C@@H]2c3cc4c(cc3[C@@H](O[C@@H]3O[C@@H]5CO[C@@H](C)O[C@H]5[C@H](O)[C@H]3O)[C@H]3COC(=O)[C@H]23)OCO4)cc(OC)c1O [Etoposide, etoposide, reference compound] |  |  | 0.021 (≈ 0.0357 µM) | 14.2 | 104 | 22.8 | 166 | 31.4 | 229 | no effect | Mean survival days P388 (P388; [3]): 12.8 days; T/C % P388 (P388; [3]): 114%; Mean survival days P388 (P388; [4]): 16.6 days; T/C % P388 (P388; [4]): 148%; Mean survival days P388 (P388; [5]): 22.2 days; T/C % P388 (P388; [5]): 198%
7 |  |  |  |  |  | CC[C@@]1(O)C(=O)OCc2c1cc1n(c2=O)Cc2cc3ccccc3nc2-1 [Camptothecin, camptothecin, reference compound] |  | > 10 | 0.04 (≈ 0.115 µM) |  |  |  |  |  |  |  | 

Row | Structure (SMILES) | IC50 (P388/V) [µg/mL] | IC50 (P388/VCR) [µg/mL] | MIC (S.aureus BB5703) [µg/mL] | MIC (S.aureus BB5769) [µg/mL] | MIC (S.aureus JS1) [µg/mL] | IC50 (DNA topoisomerase I) [µM] | IC₅₀ DNA topoisomerase II (DNA topoisomerase II) [µg/mL] | IC50 (L1210 cells; [2]) [µg/mL] | Mean survival days L1210 (L1210; [3]) [days] | T/C % L1210 (L1210; [3]) [%] | Mean survival days L1210 (L1210; [4]) [days] | T/C % L1210 (L1210; [4]) [%] | Mean survival days L1210 (L1210; [5]) [days] | T/C % L1210 (L1210; [5]) [%] | effect at an administration quantity of 0.02 mg/kg (L1210) | further results
8 | N[C@@H]1C=CC[C@@H]2CN(c3c(F)cc4c(=O)c(C(=O)O)cn(C5CC5)c4c3F)C[C@@H]21.O=C(O)C(F)(F)F (relative stereo) [Compound of Ex.1, 7 - [(1R*, 2R*, 6S*) - 2 - amino - 8 - azabicyclo [4.3.0]non - 3 - en - 8 - yl] - 1 - cyclopropyl - 6, 8 - difluoro - 1, 4 - dihydro-4 - oxo - 3 - quinolinecarboxylic acid trifluoroacetate] |  |  | < 0.006 | < 0.006 | < 0.006 |  |  |  |  |  |  |  |  |  |  | 
9 | Cl.N[C@@H]1C=CC[C@@H]2CN(c3c(F)cc4c(=O)c(C(=O)O)cn(C5CC5)c4c3F)C[C@@H]21 (single isomer, unassigned) [Compound of Ex.9, (-) - 7 - [(1R*, 2R*, 6S*) - 2 - amino - 8 - azabicyclo [4.3.0]non - 3 - en - 8 - yl] - 1 - cyclopropyl - 6, 8 - difluoro - 1, 4 - dihydro - 4 - oxo - 3 - quinolinecarboxylic acid hydrochloride] | 0.018 | 0.018 |  |  |  | 457 | 2 | 0.019 | 31.0 | 226 | 32.4 | 236 | 21.2 | 155 | effective | Mean survival days P388 (P388; [3]): 12.0 days; T/C % P388 (P388; [3]): 107%; Mean survival days P388 (P388; [4]): 14.0 days; T/C % P388 (P388; [4]): 125%; Mean survival days P388 (P388; [5]): 16.4 days; T/C % P388 (P388; [5]): 146%; death in acute toxicity test [1]: No case of death
